{"source": "patent US11766470B2", "about": "“Manufacture, formulation and dosing of apraglutide” (VectivBio AG, priority 2020, dated 2023)", "origin": "cited, not measured here", "key": {"[1]": {"conditions": "cited from earlier work"}, "[2]": {"conditions": "dosed once daily; cited from earlier work"}, "[3]": {"conditions": "cited from earlier work", "remark": "listed apart in the source"}}, "note": "Like-named read-outs stand apart in the source and are kept apart here.", "data": [{"compound": "Glucagon-like peptide 2 [GLP-2, reference compound]", "values": [{"measurement": "Half-life t½", "setting": "[1]", "result": 10, "unit": "min"}]}, {"compound": "CC[C@H](C)[C@H](NC(=O)[C@H](Cc1ccccc1)NC(=O)[C@H](CC(=O)O)NC(=O)[C@H](CCCNC(=N)N)NC(=O)[C@H](C)NC(=O)[C@H](C)NC(=O)[C@H](CC(C)C)NC(=O)[C@H](CC(N)=O)NC(=O)[C@H](CC(=O)O)NC(=O)[C@H](CC(C)C)NC(=O)[C@@H](NC(=O)[C@@H](NC(=O)[C@H](CC(N)=O)NC(=O)[C@H](CCSC)NC(=O)[C@H](CCC(=O)O)NC(=O)[C@H](CC(=O)O)NC(=O)[C@H](CO)NC(=O)[C@H](Cc1ccccc1)NC(=O)[C@H](CO)NC(=O)CNC(=O)[C@H](CC(=O)O)NC(=O)CNC(=O)[C@@H](N)Cc1c[nH]cn1)[C@@H](C)O)[C@@H](C)CC)C(=O)N[C@@H](CC(N)=O)C(=O)N[C@@H](Cc1c[nH]c2ccccc12)C(=O)N[C@@H](CC(C)C)C(=O)N[C@H](C(=O)N[C@@H](CCC(N)=O)C(=O)N[C@H](C(=O)N[C@@H](CCCCN)C(=O)N[C@H](C(=O)N[C@H](C(=O)N[C@@H](CC(=O)O)C(=O)O)[C@@H](C)O)[C@@H](C)CC)[C@@H](C)O)[C@@H](C)CC", "note": "[teduglutide]", "values": [{"measurement": "Change from baseline increase in urinary input", "setting": "[2]", "result": 139.3, "unit": "%"}, {"measurement": "Change in baseline in energy absorption", "setting": "[2]", "result": 792, "unit": "kJ/day"}, {"measurement": "Change in baseline in wet weight absorption", "setting": "[2]", "result": 743, "unit": "g/day"}]}, {"compound": "glepaglutide", "values": [{"measurement": "Change from baseline increase in urinary output", "setting": "[3]; 0.1 mg dose once daily", "result": 111, "unit": "%"}, {"measurement": "Change in baseline in energy absorption", "setting": "[3]; 0.1 mg dose once daily", "result": -377, "unit": "kJ/day"}, {"measurement": "Change in baseline in wet weight absorption", "setting": "[3]; 0.1 mg dose once daily", "result": -211, "unit": "g/day"}, {"measurement": "Change from baseline increase in urinary output", "setting": "[3]; 1.0 mg dose once daily", "result": 140, "unit": "%"}, {"measurement": "Change in baseline in energy absorption", "setting": "[3]; 1.0 mg dose once daily", "result": 435, "unit": "kJ/day"}, {"measurement": "Change in baseline in wet weight absorption", "setting": "[3]; 1.0 mg dose once daily", "result": 650, "unit": "g/day"}, {"measurement": "Change from baseline increase in urinary output", "setting": "[3]; 10 mg dose once daily", "result": 132, "unit": "%"}, {"measurement": "Change in baseline in energy absorption", "setting": "[3]; 10 mg dose once daily", "result": 588, "unit": "kJ/day"}, {"measurement": "Change in baseline in wet weight absorption", "setting": "[3]; 10 mg dose once daily", "result": 786, "unit": "g/day"}]}]}
